Tests used:
Test in all cases: relative viability (nuclei count vs DMSO), 5 days (fraction); higher = more cells survive
[1] = system: NCI-H1666
In short: (§1)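 Relative viability divides the nuclei count in treated wells by that in vehicle wells. Lung cancer cell lines were seeded in 1536-well plates, dosed by pin tool the next day, and fixed and stained after 5 days in one step with final 0.05% Triton X-100, 1% formaldehyde and 1 ug/ml Hoechst. Dosing was a single drug or a fixed anchor-drug dose plus five library-drug doses (not always all listed) in √10 steps, and values are medians of duplicate plates imaged at 4×.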

[2] = system: HCC-15
In short: as §1

[3] = system: NCI-H1993
In short: as §1

[4] = system: NCI-H1563
In short: as §1

[5] = system: PC-3 [JPC-3]
In short: as §1

[6] = system: NCI-H661
In short: as §1

[7] = system: NCI-H520
In short: as §1

[8] = system: PC-14
In short: as §1

[9] = system: SK-LU-1
In short: as §1

[10] = system: NCI-H1734
In short: as §1

[11] = system: NCI-H2228
In short: as §1

[12] = system: H3255
In short: as §1

[13] = system: HARA
In short: as §1

[14] = system: NCI-H3122
In short: as §1

[15] = system: NCI-H1975
In short: as §1

[16] = system: NCI-H838
In short: as §1

[17] = system: CAL-12T
In short: as §1

[18] = system: LC-2-ad
In short: as §1

[19] = system: NCI-H1944
In short: as §1

[20] = system: HCC-366
In short: as §1

[21] = system: NCI-H647
In short: as §1

[22] = system: LU99A
In short: as §1

[23] = system: NCI-H1395
In short: as §1

[24] = system: COR-L 105
In short: as §1

CCCCCCCCCCCC1=C(O)C(=O)C=C(O)C1=O [Embelin] + CS(=O)(=O)N1CCN(Cc2cc3nc(-c4cccc5[nH]ncc45)nc(N4CCOCC4)c3s2)CC1 [Pictilisib] (partner 1 µM)
relative viability ([1]; first compound 0.08 µM): 0.482
relative viability ([1]; first compound 0.8 µM): 0.549
relative viability ([1]; first compound 2.53 µM): 0.365
relative viability ([1]; first compound 8 µM): 0.403
relative viability ([2]; first compound 0.08 µM): 0.736
relative viability ([2]; first compound 0.8 µM): 0.802
relative viability ([2]; first compound 2.53 µM): 0.85
relative viability ([2]; first compound 8 µM): 0.743
relative viability ([3]; first compound 0.08 µM): 0.729
relative viability ([3]; first compound 0.8 µM): 0.733
relative viability ([3]; first compound 2.53 µM): 0.776
relative viability ([3]; first compound 8 µM): 0.803
relative viability ([4]; first compound 0.08 µM): 0.661
relative viability ([4]; first compound 0.8 µM): 0.786
relative viability ([4]; first compound 2.53 µM): 0.517
relative viability ([4]; first compound 8 µM): 0.659
relative viability ([5]; first compound 0.08 µM): 0.733
relative viability ([5]; first compound 0.8 µM): 0.759
relative viability ([5]; first compound 2.53 µM): 0.787
relative viability ([5]; first compound 8 µM): 0.669
relative viability ([6]; first compound 0.08 µM): 0.41
relative viability ([6]; first compound 0.8 µM): 0.44
relative viability ([6]; first compound 2.53 µM): 0.348
relative viability ([6]; first compound 8 µM): 0.481
relative viability ([7]; first compound 0.08 µM): 0.346
relative viability ([7]; first compound 0.8 µM): 0.386
relative viability ([7]; first compound 2.53 µM): 0.418
relative viability ([7]; first compound 8 µM): 0.361
relative viability ([8]; first compound 0.08 µM): 0.669
relative viability ([8]; first compound 0.8 µM): 0.804
relative viability ([8]; first compound 2.53 µM): 1.16
relative viability ([8]; first compound 8 µM): 0.717
relative viability ([9]; first compound 0.08 µM): 0.676
relative viability ([9]; first compound 0.8 µM): 0.667
relative viability ([9]; first compound 2.53 µM): 0.678
relative viability ([9]; first compound 8 µM): 0.541
relative viability ([10]; first compound 0.08 µM): 0.492
relative viability ([10]; first compound 0.8 µM): 0.547
relative viability ([10]; first compound 2.53 µM): 0.557
relative viability ([10]; first compound 8 µM): 0.431
relative viability ([11]; first compound 0.08 µM): 0.476
relative viability ([11]; first compound 0.8 µM): 0.375
relative viability ([11]; first compound 2.53 µM): 0.457
relative viability ([11]; first compound 8 µM): 0.366
relative viability ([12]; first compound 0.08 µM): 0.574
relative viability ([12]; first compound 0.8 µM): 0.62
relative viability ([12]; first compound 2.53 µM): 0.512
relative viability ([12]; first compound 8 µM): 0.525
relative viability ([13]; first compound 0.08 µM): 0.604
relative viability ([13]; first compound 0.8 µM): 0.586
relative viability ([13]; first compound 2.53 µM): 0.489
relative viability ([13]; first compound 8 µM): 0.653
relative viability ([14]; first compound 0.08 µM): 0.647
relative viability ([14]; first compound 0.8 µM): 0.605
relative viability ([14]; first compound 2.53 µM): 0.755
relative viability ([14]; first compound 8 µM): 0.616
relative viability ([15]; first compound 0.08 µM): 0.343
relative viability ([15]; first compound 0.8 µM): 0.332
relative viability ([15]; first compound 2.53 µM): 0.288
relative viability ([15]; first compound 8 µM): 0.288
relative viability ([16]; first compound 0.08 µM): 0.49
relative viability ([16]; first compound 0.8 µM): 0.573
relative viability ([16]; first compound 2.53 µM): 0.43
relative viability ([16]; first compound 8 µM): 0.479
relative viability ([17]; first compound 0.08 µM): 0.49
relative viability ([17]; first compound 0.8 µM): 0.587
relative viability ([17]; first compound 8 µM): 0.391
relative viability ([18]; first compound 0.08 µM): 0.458
relative viability ([18]; first compound 0.8 µM): 0.566
relative viability ([18]; first compound 2.53 µM): 0.618
relative viability ([18]; first compound 8 µM): 0.392
relative viability ([19]; first compound 0.08 µM): 0.367
relative viability ([19]; first compound 0.8 µM): 0.383
relative viability ([19]; first compound 2.53 µM): 0.36
relative viability ([19]; first compound 8 µM): 0.306
relative viability ([20]; first compound 0.08 µM): 0.151
relative viability ([20]; first compound 0.8 µM): 0.203
relative viability ([20]; first compound 2.53 µM): 0.149
relative viability ([20]; first compound 8 µM): 0.127
relative viability ([21]; first compound 0.08 µM): 0.423
relative viability ([21]; first compound 0.8 µM): 0.59
relative viability ([21]; first compound 2.53 µM): 0.403
relative viability ([21]; first compound 8 µM): 0.285
relative viability ([22]; first compound 0.08 µM): 0.393
relative viability ([22]; first compound 0.8 µM): 0.334
relative viability ([22]; first compound 2.53 µM): 0.357
relative viability ([22]; first compound 8 µM): 0.281
relative viability ([23]; first compound 0.08 µM): 0.608
relative viability ([23]; first compound 0.8 µM): 0.677
relative viability ([23]; first compound 2.53 µM): 0.69
relative viability ([23]; first compound 8 µM): 0.502
relative viability ([24]; first compound 0.08 µM): 0.338
relative viability ([24]; first compound 0.8 µM): 0.484
relative viability ([24]; first compound 2.53 µM): 0.424
relative viability ([24]; first compound 8 µM): 0.392

CCCCCCCCCCCC1=C(O)C(=O)C=C(O)C1=O [Embelin] + C[C@@H](Oc1cc(-c2cnn(C3CCNCC3)c2)cnc1N)c1c(Cl)ccc(F)c1Cl [Crizotinib] (partner 1 µM)
relative viability ([1]; first compound 0.08 µM): 0.975
relative viability ([1]; first compound 0.8 µM): 1.24
relative viability ([1]; first compound 2.53 µM): 1.05
relative viability ([1]; first compound 8 µM): 1.01
relative viability ([2]; first compound 0.08 µM): 0.779
relative viability ([2]; first compound 0.8 µM): 0.852
relative viability ([2]; first compound 2.53 µM): 1
relative viability ([2]; first compound 8 µM): 0.907
relative viability ([3]; first compound 0.08 µM): 1
relative viability ([3]; first compound 0.8 µM): 0.844
relative viability ([3]; first compound 2.53 µM): 0.943
relative viability ([3]; first compound 8 µM): 0.793
relative viability ([4]; first compound 0.08 µM): 0.8
relative viability ([4]; first compound 0.8 µM): 0.837
relative viability ([4]; first compound 2.53 µM): 0.785
relative viability ([4]; first compound 8 µM): 0.899
relative viability ([5]; first compound 0.08 µM): 0.948
relative viability ([5]; first compound 0.8 µM): 1.01
relative viability ([5]; first compound 2.53 µM): 1.06
relative viability ([5]; first compound 8 µM): 0.987
relative viability ([6]; first compound 0.08 µM): 1.09
relative viability ([6]; first compound 0.8 µM): 1.09
relative viability ([6]; first compound 2.53 µM): 0.846
relative viability ([6]; first compound 8 µM): 0.997
relative viability ([7]; first compound 0.08 µM): 0.894
relative viability ([7]; first compound 0.8 µM): 1
relative viability ([7]; first compound 2.53 µM): 1.07
relative viability ([7]; first compound 8 µM): 0.782
relative viability ([8]; first compound 0.08 µM): 0.916
relative viability ([8]; first compound 0.8 µM): 0.845
relative viability ([8]; first compound 2.53 µM): 0.921
relative viability ([8]; first compound 8 µM): 0.891
relative viability ([9]; first compound 0.08 µM): 1.08
relative viability ([9]; first compound 0.8 µM): 1.06
relative viability ([9]; first compound 2.53 µM): 0.941
relative viability ([9]; first compound 8 µM): 0.922
relative viability ([10]; first compound 0.08 µM): 0.71
relative viability ([10]; first compound 0.8 µM): 0.825
relative viability ([10]; first compound 2.53 µM): 0.693
relative viability ([10]; first compound 8 µM): 0.747
relative viability ([11]; first compound 0.08 µM): 0.437
relative viability ([11]; first compound 0.8 µM): 0.579
relative viability ([11]; first compound 2.53 µM): 0.431
relative viability ([11]; first compound 8 µM): 0.426
relative viability ([12]; first compound 0.08 µM): 0.86
relative viability ([12]; first compound 0.8 µM): 0.979
relative viability ([12]; first compound 2.53 µM): 0.875
relative viability ([12]; first compound 8 µM): 1.03
relative viability ([13]; first compound 0.08 µM): 1.03
relative viability ([13]; first compound 0.8 µM): 1.08
relative viability ([13]; first compound 2.53 µM): 1.12
relative viability ([13]; first compound 8 µM): 1.23
relative viability ([14]; first compound 0.08 µM): 0.296
relative viability ([14]; first compound 0.8 µM): 0.293
relative viability ([14]; first compound 2.53 µM): 0.273
relative viability ([14]; first compound 8 µM): 0.282
relative viability ([15]; first compound 0.08 µM): 1.1
relative viability ([15]; first compound 0.8 µM): 0.999
relative viability ([15]; first compound 2.53 µM): 1
relative viability ([15]; first compound 8 µM): 1.04
relative viability ([16]; first compound 0.08 µM): 0.874
relative viability ([16]; first compound 0.8 µM): 0.995
relative viability ([16]; first compound 2.53 µM): 0.961
relative viability ([16]; first compound 8 µM): 1.02
relative viability ([17]; first compound 0.08 µM): 0.615
relative viability ([17]; first compound 0.8 µM): 0.785
relative viability ([17]; first compound 2.53 µM): 0.724
relative viability ([17]; first compound 8 µM): 0.801
relative viability ([18]; first compound 0.08 µM): 0.451
relative viability ([18]; first compound 0.8 µM): 0.564
relative viability ([18]; first compound 2.53 µM): 0.472
relative viability ([18]; first compound 8 µM): 0.427
relative viability ([19]; first compound 0.08 µM): 1.19
relative viability ([19]; first compound 0.8 µM): 1.21
relative viability ([19]; first compound 2.53 µM): 1.2
relative viability ([19]; first compound 8 µM): 1.17
relative viability ([20]; first compound 0.08 µM): 0.633
relative viability ([20]; first compound 0.8 µM): 0.572
relative viability ([20]; first compound 2.53 µM): 1.02
relative viability ([20]; first compound 8 µM): 0.637
relative viability ([21]; first compound 0.08 µM): 1.44
relative viability ([21]; first compound 0.8 µM): 1.08
relative viability ([21]; first compound 2.53 µM): 1.48
relative viability ([21]; first compound 8 µM): 1.17
relative viability ([22]; first compound 0.08 µM): 0.605
relative viability ([22]; first compound 0.8 µM): 0.736
relative viability ([22]; first compound 2.53 µM): 0.55
relative viability ([22]; first compound 8 µM): 0.606
relative viability ([24]; first compound 0.08 µM): 0.727
relative viability ([24]; first compound 0.8 µM): 0.932
relative viability ([24]; first compound 2.53 µM): 0.875
relative viability ([24]; first compound 8 µM): 1.04

— the supplement of paper PMC10307832
